Each compound was assayed on H3K27 methylation in G401 cell (assay: ELISA (H3K27 methylation) assay). Details: Homo sapiens, G-401; ELISA Qualified assay (H3K27 methylation); read-out: (c) IC50 (μM), ELISA Qualified.
Type: cell-based
Text: ELISA (H3K27 Methylation) Assay

SMILES	IC50 [µM]
OCc1ncccc1-c1cnc(NCc2c(F)ccc3c2C(O)CO3)n2cnnc12 (stereo not shown) [Example 243, 5-fluoro-4-(((8-(2-(hydroxymethyl)pyridin-3-yl)-[1,2,4]triazolo[4,3-c]pyrimidin-5-yl)amino)methyl)-2,3-dihydrobenzofuran-3-ol]	0.0409
CC(c1ccc(-c2cnc(NCc3cccc4c3CCO4)n3cnnc23)cc1)N1CCCC1 (stereo not shown) [Example 14, N-((2,3-dihydrobenzofuran-4-yl)methyl)-8-(4-(1-(pyrrolidin-1-yl)ethyl)phenyl)-[1,2,4]triazolo[4,3-c]pyrimidin-5-amine]	0.0274
Fc1ccc2c(c1CNc1ncc(-c3ccncc3Cl)c3nncn13)CCO2 [Example 162, 8-(3-chloropyridin-4-yl)-N-((5-fluoro-2,3-dihydrobenzofuran-4-yl)methyl)-[1,2,4]triazolo[4,3-c]pyrimidin-5-amine]	0.0273
CS(=O)(=O)CCOc1ccc(-c2cnc(NCc3cccc4c3CCO4)n3cnnc23)cc1 [Example 75, N-((2,3-dihydrobenzofuran-4-yl)methyl)-8-(4-(2-(methylsulfonyl)ethoxy)phenyl)-[1,2,4]triazolo[4,3-c]pyrimidin-5-amine]	0.298
Nc1cc(F)c(-c2cnc(NCc3cccc4c3CCO4)n3cnnc23)cn1 [Example 58, 8-(6-amino-4-fluoropyridin-3-yl)-N-((2,3-dihydrobenzofuran-4-yl)methyl)-[1,2,4]triazolo[4,3-c]pyrimidin-5-amine]	0.124
CN(C)C(=O)c1ccc(-c2cnc(NCc3cccc4c3CCO4)n3cnnc23)cc1 [Example 42, 4-(5-(((2,3-dihydrobenzofuran-4-yl)methyl)amino)-[1,2,4]triazolo[4,3-c]pyrimidin-8-yl)-N,N-dimethylbenzamide]	0.22
Cc1nn(C)cc1-c1cnc(NCc2cccc3c2CCO3)n2cnnc12 [Example 30, N-((2,3-dihydrobenzofuran-4-yl)methyl)-8-(1,3-dimethyl-1H-pyrazol-4-yl)-[1,2,4]triazolo[4,3-c]pyrimidin-5-amine]	0.069
CS(=O)(=O)Nc1ccc(-c2cnc(NCc3cccc4c3CCO4)n3cnnc23)cc1 [Example 19, N-(4-(5-(((2,3-dihydrobenzofuran-4-yl)methyl)amino)-[1,2,4]triazolo[4,3-c]pyrimidin-8-yl)phenyl)methanesulfonamide]	0.0401
O=C1CCCN1c1cncc(-c2cnc(NCc3cccc4c3CCO4)n3cnnc23)c1 [Example 87, 1-(5-(5-(((2,3-dihydrobenzofuran-4-yl)methyl)amino)-[1,2,4]triazolo[4,3-c]pyrimidin-8-yl)pyridin-3-yl)pyrrolidin-2-one]	0.707
O=C(c1ccc(-c2cnc(NCc3cccc4c3CCO4)n3cnnc23)cn1)N1CCCC1 [Example 80, (5-(5-(((2,3-dihydrobenzofuran-4-yl)methyl)amino)-[1,2,4]triazolo[4,3-c]pyrimidin-8-yl)pyridin-2-yl)(pyrrolidin-1-yl)methanone]	0.132
O=C1CN(Cc2ccc(-c3cnc(NCc4cccc5c4CCO5)n4cnnc34)cn2)CCN1 [Example 133, 4-((5-(5-(((2,3-dihydrobenzofuran-4-yl)methyl)amino)-[1,2,4]triazolo[4,3-c]pyrimidin-8-yl)pyridin-2-yl)methyl)piperazin-2-one]	0.142
O=C(c1ccc(-c2cnc(NCc3cccc4c3CCO4)n3cnnc23)cc1)N1CCNCC1 [Example 41, (4-(5-(((2,3-dihydrobenzofuran-4-yl)methyl)amino)-[1,2,4]triazolo[4,3-c]pyrimidin-8-yl)phenyl)(piperazin-1-yl)methanone]	0.375
CN(C)C(=O)c1cccc(-c2cnc(NCc3cccc4c3CCO4)n3cnnc23)c1 [Example 43, 3-(5-(((2,3-dihydrobenzofuran-4-yl)methyl)amino)-[1,2,4]triazolo[4,3-c]pyrimidin-8-yl)-N,N-dimethylbenzamide]	0.247
Cc1cnn(-c2cnc(NCc3c(F)ccc4c3CCO4)n3cnnc23)c1 [Example 239, N-((5-fluoro-2,3-dihydrobenzofuran-4-yl)methyl)-8-(4-methyl-1H-pyrazol-1-yl)-[1,2,4]triazolo[4,3-c]pyrimidin-5-amine]	0.0382
Cc1ncc(-c2cnc(NCc3cccc4c3CCO4)n3cnnc23)cn1 [Example 60, N-((2,3-dihydrobenzofuran-4-yl)methyl)-8-(2-methylpyrimidin-5-yl)-[1,2,4]triazolo[4,3-c]pyrimidin-5-amine]	0.299
Cc1ncccc1-c1cnc(NCc2c(F)ccc3c2C(O)CO3)n2cnnc12 (stereo not shown) [Example 242, 5-fluoro-4-(((8-(2-methylpyridin-3-yl)-[1,2,4]triazolo[4,3-c]pyrimidin-5-yl)amino)methyl)-2,3-dihydrobenzofuran-3-ol]	0.0634
CC(C)(O)c1ccc(-c2cnc(NCc3cccc4c3CCO4)n3cnnc23)cn1 [Example 99, 2-(5-(5-(((2,3-dihydrobenzofuran-4-yl)methyl)amino)-[1,2,4]triazolo[4,3-c]pyrimidin-8-yl)pyridin-2-yl)propan-2-ol]	0.107
Fc1ccc2c(c1CNc1ncc(-c3cnccc3C(F)(F)F)c3nncn13)CCO2 [Example 136, N-((5-fluoro-2,3-dihydrobenzofuran-4-yl)methyl)-8-(4-(trifluoromethyl)pyridin-3-yl)-[1,2,4]triazolo[4,3-c]pyrimidin-5-amine]	0.0804
c1ccc(-c2cnc(NCc3cccc4c3CCO4)n3cnnc23)cc1 [Example 13, N-((2,3-dihydrobenzofuran-4-yl)methyl)-8-phenyl-[1,2,4]triazolo[4,3-c]pyrimidin-5-amine]	0.139
CC(=O)N1CCN(CCc2ccc(-c3cnc(NCc4cccc5c4CCO5)n4cnnc34)cn2)CC1 [Example 108, 1-(4-(2-(5-(5-(((2,3-dihydrobenzofuran-4-yl)methyl)amino)-[1,2,4]triazolo[4,3-c]pyrimidin-8-yl)pyridin-2-yl)ethyl)piperazin-1-yl)ethanone]	0.173
CCNC(=O)c1ccc(-c2cnc(NCc3cccc4c3CCO4)n3cnnc23)cn1 [Example 114, 5-(5-(((2,3-dihydrobenzofuran-4-yl)methyl)amino)-[1,2,4]triazolo[4,3-c]pyrimidin-8-yl)-N-ethylpicolinamide]	1.98
Cc1c(-c2cnc(NCc3c(F)ccc4c3C(O)CO4)n3cnnc23)ccc[n+]1[O-] (stereo not shown) [Example 244, 3-(5-(((5-fluoro-3-hydroxy-2,3-dihydrobenzofuran-4-yl)methyl)amino)-[1,2,4]triazolo[4,3-c]pyrimidin-8-yl)-2-methylpyridine 1-oxide]	0.241

Stronger by IC50, values ahead:

IC50 [µM]	SMILES
0.0265	CC(=O)NCc1ccc(-c2cnc(NCc3c(F)ccc4c3CCO4)n3cnnc23)cn1 [Example 171, N-((5-(5-(((5-fluoro-2,3-dihydrobenzofuran-4-yl)methyl)amino)-[1,2,4]triazolo[4,3-c]pyrimidin-8-yl)pyridin-2-yl)methyl)acetamide]
0.0252	COc1nccc(-c2cnc(NCc3c(F)ccc4c3CCO4)n3cnnc23)c1C [Example 230, N-((5-fluoro-2,3-dihydrobenzofuran-4-yl)methyl)-8-(2-methoxy-3-methylpyridin-4-yl)-[1,2,4]triazolo[4,3-c]pyrimidin-5-amine]
0.0232	Cn1cc(-c2cnc(NCc3c(F)ccc4c3CCO4)n3cnnc23)c(C(F)(F)F)n1 [Example 170, N-((5-fluoro-2,3-dihydrobenzofuran-4-yl)methyl)-8-(1-methyl-3-(trifluoromethyl)-1H-pyrazol-4-yl)-[1,2,4]triazolo[4,3-c]pyrimidin-5-amine]
0.0152	Cc1cc(C2CC2)ncc1-c1cnc(NCc2c(F)ccc3c2CCO3)n2cnnc12 [Example 173, 8-(6-cyclopropyl-4-methylpyridin-3-yl)-N-((5-fluoro-2,3-dihydrobenzofuran-4-yl)methyl)-[1,2,4]triazolo[4,3-c]pyrimidin-5-amine]
0.0067	Cc1nn(CCO)c(C)c1-c1cnc(NCc2c(F)ccc3c2CCO3)n2cnnc12 [Example 158, 2-(4-(5-(((5-fluoro-2,3-dihydrobenzofuran-4-yl)methyl)amino)-[1,2,4]triazolo[4,3-c]pyrimidin-8-yl)-3,5-dimethyl-1H-pyrazol-1-yl)ethanol]
0.0061	CCOc1ncc(-c2cnc(NCc3c(F)ccc4c3CCO4)n3cnnc23)c(C)n1 [Example 226, 8-(2-ethoxy-4-methylpyrimidin-5-yl)-N-((5-fluoro-2,3-dihydrobenzofuran-4-yl)methyl)-[1,2,4]triazolo[4,3-c]pyrimidin-5-amine]
0.0046	Cc1ncncc1-c1cnc(NCc2c(F)ccc3c2CCO3)n2cnnc12 [Example 176, N-((5-fluoro-2,3-dihydrobenzofuran-4-yl)methyl)-8-(4-methylpyrimidin-5-yl)-[1,2,4]triazolo[4,3-c]pyrimidin-5-amine]
0.0045	OCc1ccc(-c2cnc(NCc3c(F)ccc4c3CCO4)n3cnnc23)cn1 [Example 234, (5-(5-(((5-fluoro-2,3-dihydrobenzofuran-4-yl)methyl)amino)-[1,2,4]triazolo[4,3-c]pyrimidin-8-yl)pyridin-2-yl)methanol]
0.0042	COc1ncc(-c2cnc(NCc3c(F)ccc4c3CCO4)n3cnnc23)cn1 [Example 174, N-((5-fluoro-2,3-dihydrobenzofuran-4-yl)methyl)-8-(2-methoxypyrimidin-5-yl)-[1,2,4]triazolo[4,3-c]pyrimidin-5-amine]
0.0037	Cc1cc(S(C)(=O)=O)ccc1-c1cnc(NCc2c(F)ccc3c2CCO3)n2cnnc12 [Example 128, N-((5-fluoro-2,3-dihydrobenzofuran-4-yl)methyl)-8-(2-methyl-4-(methylsulfonyl)phenyl)-[1,2,4]triazolo[4,3-c]pyrimidin-5-amine]
0.0022	CCc1cc(C)c(-c2cnc(NCc3c(F)ccc4c3CCO4)n3cnnc23)cn1 [Example 224, 8-(6-ethyl-4-methylpyridin-3-yl)-N-((5-fluoro-2,3-dihydrobenzofuran-4-yl)methyl)-[1,2,4]triazolo[4,3-c]pyrimidin-5-amine]
0.0014	Cc1nc(CN(C)C)ccc1-c1cnc(NCc2c(F)ccc3c2CCO3)n2cnnc12 [Example 223]
